Reference: patent publication US20170050957A1, “4-AMINO-6-(HETEROCYCLIC)PICOLINATES AND 6-AMINO-2-(HETEROCYCLIC)PYRIMIDINE-4-CARBOXYLATES AND THEIR USE AS HERBICIDES” (Dow AgroSciences LLC, priority 2013, published 2017)
Read-outs that look alike come from different tables or passages of the source.

Tests used:
[1] = test system: Key Broadleaf Weed and Crop Species; test: Post-emergent Test II herbicidal activity (Table 15); format: in vivo; conditions: post-emergence, 336 h, 14 d; for pest or weed control at 35 g/ha: 35 g ai/ha; for pest or weed control at 70 g/ha: 70 g ai/ha; for pest or weed control at 140 g/ha: 140 g ai/ha
Summary of the method: (§1)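 Plants grown in greenhouse (~15 h photoperiod, 23-29 °C day, 22-28 °C night) to first or second true leaf stage, then sprayed post-emergence at 187 L/ha with a high rate and 1/2×, 1/4×, 1/8× and 1/16× dilutions. Injury scored visually after 14 d, 0-100% versus untreated plants.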

[2] = test system: Key Grass and Sedge Weeds as well as Grass Crops; test: Post-emergent Test II herbicidal activity (Table 16); format: in vivo; conditions: post-emergence, 336 h, 14 d; for pest or weed control at 35 g/ha: 35 g ai/ha; for pest or weed control at 70 g/ha: 70 g ai/ha; for pest or weed control at 140 g/ha: 140 g ai/ha
Summary of the method: as §1

[3] = Abutilon theophrasti, velvetleaf (Abutilon theophrasti), read-out: Visual Growth Reduction (%) 14 Days After Application, ABUTH
[4] = Amaranthus retroflexus, redroot pigweed (Amaranthus retroflexus), read-out: Visual Growth Reduction (%) 14 Days After Application, AMARE
[5] = Brassica napus, oilseed rape, canola (Brassica napus), read-out: Visual Growth Reduction (%) 14 Days After Application, BRSNN
[6] = Chenopodium album, lambsquarters (Chenopodium album), read-out: Visual Growth Reduction (%) 14 Days After Application, CHEAL
[7] = Euphorbia heterophylla, wild poinsettia (Euphorbia heterophylla), read-out: Visual Growth Reduction (%) 14 Days After Application, EPHHL
[8] = Helianthus annuus, sunflower (Helianthus annuus), read-out: Visual Growth Reduction (%) 14 Days After Application, HELAN
[9] = Cyperus esculentus, yellow nutsedge (Cyperus esculentus), read-out: Visual Growth Reduction (%) 14 Days After Application, CYPES
[10] = Echinochloa crus-galli, barnyardgrass (Echinochloa crus-galli), read-out: Visual Growth Reduction (%) 14 Days After Application, ECHCG
[11] = Oryza sativa, rice (Oryza sativa), read-out: Visual Growth Reduction (%) 14 Days After Application, ORYSA
[12] = Setaria faberi, giant foxtail (Setaria faberi), read-out: Visual Growth Reduction (%) 14 Days After Application, SETFA
[13] = Triticum aestivum, wheat, spring (Triticum aestivum), read-out: Visual Growth Reduction (%) 14 Days After Application, TRZAS
[14] = Zea mays, maize, corn (Zea mays), read-out: Visual Growth Reduction (%) 14 Days After Application, ZEAMX

SMILES	pest or weed control at 35 g/ha [1, 3] [%]	pest or weed control at 70 g/ha [1, 3] [%]	pest or weed control at 140 g/ha [1, 3] [%]	pest or weed control at 35 g/ha [1, 4] [%]	pest or weed control at 70 g/ha [1, 4] [%]	pest or weed control at 140 g/ha [1, 4] [%]	pest or weed control at 35 g/ha [1, 5] [%]	pest or weed control at 70 g/ha [1, 5] [%]	pest or weed control at 140 g/ha [1, 5] [%]	pest or weed control at 35 g/ha [1, 6] [%]	pest or weed control at 70 g/ha [1, 6] [%]	pest or weed control at 140 g/ha [1, 6] [%]	pest or weed control at 35 g/ha [1, 7] [%]	pest or weed control at 70 g/ha [1, 7] [%]	pest or weed control at 140 g/ha [1, 7] [%]	pest or weed control at 35 g/ha [1, 8] [%]	pest or weed control at 70 g/ha [1, 8] [%]	pest or weed control at 140 g/ha [1, 8] [%]	pest or weed control at 35 g/ha [2, 9] [%]	pest or weed control at 70 g/ha [2, 9] [%]	also measured
COC(=O)c1nc(-c2cccc3occc23)c(F)c(N)c1Cl [Compound 2.15]	45 to 59	75 to 84	95 to 100	95 to 100	95 to 100	95 to 100	45 to 59	75 to 84	85 to 94	95 to 100	95 to 100	95 to 100	0 to 29	0 to 29	0 to 29	45 to 59	75 to 84	75 to 84	0 to 29	0 to 29	pest or weed control at 140 g/ha [2, 9]: 0 to 29%; pest or weed control at 35 g/ha [2, 10]: 0 to 29%; pest or weed control at 70 g/ha [2, 10]: 45 to 59%; pest or weed control at 140 g/ha [2, 10]: 75 to 84%; pest or weed control at 35 g/ha [2, 11]: 0 to 29%; pest or weed control at 70 g/ha [2, 11]: 0 to 29%; pest or weed control at 140 g/ha [2, 11]: 0 to 29%; pest or weed control at 35 g/ha [2, 12]: 0 to 29%; pest or weed control at 70 g/ha [2, 12]: 0 to 29%; pest or weed control at 140 g/ha [2, 12]: 0 to 29%; pest or weed control at 35 g/ha [2, 13]: 0 to 29%; pest or weed control at 70 g/ha [2, 13]: 0 to 29%; pest or weed control at 140 g/ha [2, 13]: 0 to 29%; pest or weed control at 35 g/ha [2, 14]: 95 to 100%; pest or weed control at 70 g/ha [2, 14]: 95 to 100%; pest or weed control at 140 g/ha [2, 14]: 95 to 100%; melting point: 100 to 103 °C
COC(=O)c1nc(-c2cc3occc3cc2F)cc(N)c1Cl [Compound 2.12]	85 to 94	95 to 100	95 to 100	95 to 100	95 to 100	95 to 100	75 to 84	85 to 94	95 to 100	95 to 100	95 to 100	95 to 100	95 to 100	95 to 100	95 to 100	30 to 44	60 to 74	60 to 74	0 to 29	0 to 29	pest or weed control at 140 g/ha [2, 9]: 0 to 29%; pest or weed control at 35 g/ha [2, 10]: 95 to 100%; pest or weed control at 70 g/ha [2, 10]: 95 to 100%; pest or weed control at 140 g/ha [2, 10]: 95 to 100%; pest or weed control at 35 g/ha [2, 11]: 0 to 29%; pest or weed control at 70 g/ha [2, 11]: 0 to 29%; pest or weed control at 140 g/ha [2, 11]: 0 to 29%; pest or weed control at 35 g/ha [2, 12]: 45 to 59%; pest or weed control at 70 g/ha [2, 12]: 60 to 74%; pest or weed control at 140 g/ha [2, 12]: 60 to 74%; pest or weed control at 35 g/ha [2, 13]: 0 to 29%; pest or weed control at 70 g/ha [2, 13]: 0 to 29%; pest or weed control at 140 g/ha [2, 13]: 0 to 29%; pest or weed control at 35 g/ha [2, 14]: 0 to 29%; pest or weed control at 70 g/ha [2, 14]: 30 to 44%; pest or weed control at 140 g/ha [2, 14]: 60 to 74%; melting point: 130 °C
